Assay: Thermal stability (purity by GC-FID after heating with absorbent)
Assay type: physicochemical
Conditions: initial purity 97.7%
Description: The samples were stirred for 24 h at 50° C. and then analyzed for purity by GC-FID. The % purity EX-6 initially was 97.7%. Shown in Table 2 below are the % purity after the thermal stability test. All of the results are within error of the test method.

CO/C(=N\C(F)(F)C(F)(F)C(F)(F)F)C(F)(F)C(F)(F)F [EX-6, methyl 2,2,3,3,3-pentafluoro-N-(perfluoropropyl)propanimidate]
Purity (%) after thermal stability test (100 mg 4 Angstrom Molecular Sieves, 1 g stirred 24 h at 50° C.): 98.0% | Purity (%) after thermal stability test (100 mg Activated Carbon, 1 g stirred 24 h at 50° C.): 98.2% | Purity (%) after thermal stability test (100 mg Basic Alumina, 1 g stirred 24 h at 50° C.): 98.0% | Purity (%) after thermal stability test (100 mg K2CO3, 1 g stirred 24 h at 50° C.): 97.9% | Purity (%) after thermal stability test (100 mg Silica Gel, 1 g stirred 24 h at 50° C.): 97.9% | Purity (%) after thermal stability test (No absorbent, 1 g stirred 24 h at 50° C.): 97.7%

— US11053206B2, “Hydrofluorocarboximidate and methods of making and using the same” (3M INNOVATIVE PROPERTIES COMPANY, priority 2017, dated 2021)
